Measurements as given in patent publication US20240368163A1, “COMPOUNDS AND METHODS FOR MODULATING SPLICING” (REMIX THERAPEUTICS INC., priority 2021, published 2024).
pIC50: −log10 of the molar value.

Experiments:
Format in all cases: cell-based, human
HTT [1] = experiment: Splicing RT-qPCR assay, HTT mRNA canonical junction (CJ) and alternative junction (AJ); conditions: Homo sapiens; for AC50: increase in AJ mRNA
Procedure, shortened: (§1)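 Splice switching is measured in A673 or K562 cells after 24 h compound exposure (maximum 10 uM, 3-fold steps). Canonical and alternative junction mRNA levels are quantified by RT-qPCR relative to housekeeper and DMSO.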

MYB [2] = experiment: Splicing RT-qPCR assay, MYB mRNA canonical junction (CJ) and alternative junction (AJ); conditions: Homo sapiens; for AC50: increase in AJ mRNA
Procedure, shortened: as §1

SMN2 = experiment: Splicing RT-qPCR panel, SMN2 canonical junction (CJ) mRNA; conditions: Homo sapiens, RT-qPCR panel, canonical junction mRNA; compound concentration having 50% response in CJ decrease; read-out: SMN2 IC50 (decrease in CJ mRNA levels)
Procedure, shortened: as §1

Target C [3] = experiment: Splicing RT-qPCR panel, Target C canonical junction (CJ) mRNA; conditions: Homo sapiens, RT-qPCR panel, canonical junction mRNA; compound concentration having 50% response in CJ decrease; read-out: Target C IC50 (decrease in CJ mRNA levels)
Procedure, shortened: as §1

MYB [4] = experiment: HiBiT protein abundance assay, MYB; conditions: Homo sapiens, K562, 24 h, Table 13A, modified K562 cells
Procedure, shortened: (§2)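 Luminescent readout from lytic HiBiT/LgBiT complementation reports endogenous tagged protein level in engineered K562 cells. Compounds dosed 24 h, top 10 μM final, 3-fold steps, 10 points. IC50 is the concentration giving 50% of untreated-control abundance, from 4-parameter logistic fit.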

HTT [5] = experiment: HiBiT protein abundance assay, HTT; conditions: Homo sapiens, K562, 24 h, Table 13A, modified K562 cells
Procedure, shortened: as §2

Target C [6] = experiment: HiBiT protein abundance assay, Target C; conditions: Homo sapiens, K562, 24 h, Table 13A, modified K562 cells
Procedure, shortened: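 Knock-in HiBiT clones, 10000/well; 10-pt 3-fold titration, top 10 μM final; DMSO ≤0.25%; 24 h, 37 °C, 5% CO2. Lytic HiBiT luminescence readout. 4PL fit, IC50 = concentration giving 50% of untreated abundance.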

[7] = 24 h, decrease in CJ mRNA, A673 or K562 cells, 24 hours treatment, RT-qPCR, read-out: HTT CJ IC50
[8] = 24 h, A673 or K562 cells, 24 hours treatment, RT-qPCR
[9] = RT-qPCR panel, canonical junction mRNA, compound concentration having 50% response in CJ decrease, read-out: HTT IC50 (decrease in CJ mRNA levels)
[10] = 24 h, decrease in CJ mRNA, A673 or K562 cells, 24 hours treatment, RT-qPCR, read-out: MYB CJ IC50
[11] = RT-qPCR panel, canonical junction mRNA, compound concentration having 50% response in CJ decrease, read-out: MYB IC50 (decrease in CJ mRNA levels)

Row | SMILES | pIC50 (HTT [1]; [7]) | AC50 (HTT [1]; [8]) | pIC50 (HTT [1]; [9]) | pIC50 (MYB [2]; [10]) | AC50 (MYB [2]; [8]) | pIC50 (MYB [2]; [11]) | pIC50 (SMN2) | pIC50 (Target C [3]) | pIC50 (MYB [4]) | pIC50 (HTT [5]) | pIC50 (Target C [6])
1 | CC1(C)CC(Oc2ccc(-c3ccc(-c4cn[nH]c4)c4cn[nH]c34)nn2)CCN1 (stereo not shown) [Compound 220] | 5.00 to 6.00 | > 10000 nM | 5.00 to 6.00 | 5.00 to 6.00 | > 10 µM | 5.00 to 6.00 | 6.00 to 7.00 | < 5.00 | 5.00 to 6.00 | 5.00 to 6.00 | < 5.00
2 | c1n[nH]cc1-c1ccc(-c2ccc(S[C@@H]3C[C@H]4CC[C@@H](C3)N4)nn2)c2[nH]ncc12 [Compound 221] | < 5.00 | > 10000 nM | < 5.00 | < 5.00 | > 10 µM | < 5.00 | < 5.00 | < 5.00 | 5.00 to 6.00 | 5.00 to 6.00 | 5.00 to 6.00
3 | CN(c1ccc(-c2ccc(-c3cn[nH]c3)c3ncsc23)nn1)C1CCNCC1 [Compound 222] | 5.00 to 6.00 | 1000 to 10000 nM | 5.00 to 6.00 | 5.00 to 6.00 | 1 to 10 µM | 5.00 to 6.00 | 6.00 to 7.00 | 5.00 to 6.00 | 5.00 to 6.00 | 6.00 to 7.00 | 5.00 to 6.00
4 | [2H]C([2H])([2H])N(c1ccc(-c2ccc(-c3cn[nH]c3)c3ncsc23)nn1)C1CCNCC1 [Compound 223] | 5.00 to 6.00 | 1000 to 10000 nM | 5.00 to 6.00 | 5.00 to 6.00 | > 10 µM | 5.00 to 6.00 | 6.00 to 7.00 | 5.00 to 6.00 | 5.00 to 6.00 | 5.00 to 6.00 | 5.00 to 6.00
5 | CCN(c1ccc(-c2ccc(-c3cn[nH]c3)c3ncsc23)nn1)C1CCNCC1 [Compound 224] | < 5.00 | > 10000 nM | < 5.00 | 5.00 to 6.00 | > 10 µM | 5.00 to 6.00 | 5.00 to 6.00 | < 5.00 | 6.00 to 7.00 | 5.00 to 6.00 | 5.00 to 6.00
6 | CCN(c1ccc(-c2ccc(-c3cn[nH]c3)c3ncsc23)nn1)C1CC(C)(C)NC(C)(C)C1 [Compound 225] | 5.00 to 6.00 | 1000 to 10000 nM | 5.00 to 6.00 | 6.00 to 7.00 | > 10 µM | 6.00 to 7.00 | 6.00 to 7.00 | 5.00 to 6.00 | 6.00 to 7.00 | 6.00 to 7.00 | 5.00 to 6.00
7 | c1n[nH]cc1-c1ccc(-c2ccc(N3CC4(CCNCC4)C3)nn2)c2[nH]ncc12 [Compound 229] | 5.00 to 6.00 | 1000 to 10000 nM | 5.00 to 6.00 | 5.00 to 6.00 | 1 to 10 µM | 5.00 to 6.00 | 5.00 to 6.00 | 5.00 to 6.00 | 5.00 to 6.00 | 5.00 to 6.00 | 5.00 to 6.00
8 | c1n[nH]cc1-c1ccc(-c2ccc(OC3CCNCC3)nn2)c2[nH]ncc12 [Compound 230] | < 5.00 | > 10000 nM | < 5.00 | < 5.00 | > 10 µM | < 5.00 | 5.00 to 6.00 | < 5.00 | 5.00 to 6.00 | 5.00 to 6.00 | < 5.00
9 | [2H]C([2H])([2H])N(c1ccc(-c2ccc(-c3cn[nH]c3)c3ncsc23)nn1)C1CC(C)(C)NC(C)(C)C1 [Compound 231] | 6.00 to 7.00 | 100 to 1000 nM | 6.00 to 7.00 | 6.00 to 7.00 | 0.1 to 1 µM | 6.00 to 7.00 | > 7.00 | 6.00 to 7.00 | 6.00 to 7.00 | > 7.00 | 6.00 to 7.00
10 | Cn1cc(-c2ccc(-c3ccc(OC4CC(C)(C)NC(C)(C)C4)nn3)c3[nH]ncc23)cn1 [Compound 232] | 5.00 to 6.00 | 100 to 1000 nM | 5.00 to 6.00 | 5.00 to 6.00 | 0.1 to 1 µM | 5.00 to 6.00 | 6.00 to 7.00 | 5.00 to 6.00 | 5.00 to 6.00 | 6.00 to 7.00 | 5.00 to 6.00
11 | COc1cc(-c2ccc(-c3ccc(N(C)C4CC(C)(C)NC(C)(C)C4)nn3)c3ncsc23)cnn1 [Compound 233] | 6.00 to 7.00 | 100 to 1000 nM | 6.00 to 7.00 | 6.00 to 7.00 | 0.1 to 1 µM | 6.00 to 7.00 | 6.00 to 7.00 | 6.00 to 7.00 | 6.00 to 7.00 | 6.00 to 7.00 | 6.00 to 7.00
